{
  "source": "patent US20220225597A1",
  "about": "“MOUSE MODEL FOR ASSESSING TOXICITIES ASSOCIATED WITH IMMUNOTHERAPIES” (Juno Therapeutics, Inc., priority 2017, published 2022)",
  "key": {"[1]": {"tested_on": "BALB/c mice", "test": "Survival in mouse model of toxicity (CPA, then muCAR-T or mock cells)", "type": "in vivo", "settings": "250 mg/kg CPA alone i.p.; tumor-free BALB/c mice", "protocol": "(§1) A single dose of either 100 mg/kg or 250 mg/kg cyclophosphamide (CPA) was injected into naïve BALB/c mice (tumor-free) by intraperitoneal (i.p.) injection. Twenty-four hours later, about 5×10^6 mouse CAR-expressing T cells or mock (control) cells, generated as described in Example 1, were transferred into mice by intravenous injection into the lateral tail vein. As a control, mice were injected with CPA alone or were left untreated. Table E1 sets forth the treatment groups."}, "[2]": {"tested_on": "BALB/c mice", "type": "in vivo, mouse", "protocol": "as §1\nBlood samples were collected from treated mice at days 3, 10, 17, 31 and, in some mice at day 43, following cell infusion. The pharmacokinetics (PK) in the blood of administered cells was assessed by detection of the surrogate marker Thy 1.1. The number of circulating B cells, T cells and CD11b+ cells in the blood at the time points following treatment also was assessed."}, "[3]": {"tested_on": "BALB/c mice", "type": "in vivo, mouse", "protocol": "Various parameters relating to toxicity were assessed in BALB/c mice produced to develop B cell aplasia following administration of an immunotherapy involving anti-CD19 CAR T cells substantially as described in Example 2.\nAt 24, 48, and 72 hours after infusion with cell compositions, the three healthiest mice from each group were anesthetized, transcardially perfused with phosphate buffered saline (PBS) to flush brain blood vessels, and sacrificed. Blood and tissue samples (spleen, kidney, liver and brain) were collected for analysis of immune cell populations, gene expression, and blood chemistry. The blood and tissue samples were either processed for flow cytometry or were snap-frozen for RNA sequencing (RNA-Seq) analysis. For flow cytometry, tissue samples were digested and cell suspensions were layered over a density gradient to enrich immune cell populations.", "remark": "listed apart in the source"}, "[4]": {"tested_on": "BALB/c mice", "test": "Serum chemistry profiles", "settings": "various time points following cell treatment", "protocol": "The serum was stored at −20° C. prior to analysis for complete serum chemistry panels, including for levels of serum glucose, albumin, albumin to globulin (A/G) ratio, globulin, total protein, calcium, phosphorus, ALT, AST, and BUN enzymes."}, "[5]": {"tested_on": "A20 cells", "test": "Tumor burden by histology", "type": "in vivo, mouse", "settings": "mice having received A20 cells i.v.", "protocol": "To examine the effects of tumor burden on the toxicity following B cell aplasia in mice, BALB/c mice were injected with CD19-expressing A20 cells prior to treatment with CPA and mouse anti-CD19 CAR−T cells. A20 cells are a cell line of B lymphocytes derived from a spontaneous reticulum cell neoplasm in a BALB/cAnN mouse. As the cell line was originally derived from cells of an individual of a BALB/c mouse substrain, the cells are syngenic to the BALB/c mice and can be administered into an immunocompetent BALB/c mouse without triggering an immune response.\nBALB/c mice were injected intravenously with A20 cells. […] Table E3 sets forth the treatment groups.\nTumor burden also was assessed by histology in treated mice."}},
  "data": [
    {"smiles": "O=P1(N(CCCl)CCCl)NCCCO1", "note": "(centres unmarked) [CPA, cyclophosphamide]", "values": [
      {"measurement": "Survival", "setting": "[1]", "result": 100, "unit": "%"},
      {"measurement": "levels of circulating B cells", "setting": "[2]; 250 mg/kg CPA than 100 mg/kg CPA", "result": "reduced levels of circulating B cells to a greater degree"},
      {"measurement": "circulating B cells, T cells, and CD11b+ cells", "setting": "[2]; 100 or 250 mg/kg CPA i.p., blood", "result": "depleted"},
      {"measurement": "circulating CD45+ live cells, CD11b+ cells, endogenous T cells and endogenous B cells in blood", "setting": "[3]; 250 mg/kg CPA pre-conditioning, continued to drop at least for 72 hours", "result": "depletion"},
      {"measurement": "immune cells in brain tissue, including endogenous T cells and endogenous B cells", "setting": "[3]; CPA pre-conditioning", "result": "depleted"},
      {"measurement": "immune cells (endogenous T cells, B cells, CD45+ cells, CD11b+ cells) in spleen, kidney and liver", "setting": "[3]; treatment with CPA", "result": "depletion"},
      {"measurement": "serum Albumin to Globulin ratio (A/G ratio)", "setting": "[4]", "result": "significantly reduced"},
      {"measurement": "A20 tumor masses in liver and spleen tissues", "setting": "[5]", "result": "observed in some"}
    ]}
  ]
}
